In general, IC50 refers to the midpoint of a concentration-inhibition curve. Low values mean higher potency, high ones lower potency.

This assay deals with T1, Ubiquitin carboxyl-terminal hydrolase 30 (Homo sapiens, UniProt Q70CQ3).
T1 sequence (Q70CQ3 whole entry): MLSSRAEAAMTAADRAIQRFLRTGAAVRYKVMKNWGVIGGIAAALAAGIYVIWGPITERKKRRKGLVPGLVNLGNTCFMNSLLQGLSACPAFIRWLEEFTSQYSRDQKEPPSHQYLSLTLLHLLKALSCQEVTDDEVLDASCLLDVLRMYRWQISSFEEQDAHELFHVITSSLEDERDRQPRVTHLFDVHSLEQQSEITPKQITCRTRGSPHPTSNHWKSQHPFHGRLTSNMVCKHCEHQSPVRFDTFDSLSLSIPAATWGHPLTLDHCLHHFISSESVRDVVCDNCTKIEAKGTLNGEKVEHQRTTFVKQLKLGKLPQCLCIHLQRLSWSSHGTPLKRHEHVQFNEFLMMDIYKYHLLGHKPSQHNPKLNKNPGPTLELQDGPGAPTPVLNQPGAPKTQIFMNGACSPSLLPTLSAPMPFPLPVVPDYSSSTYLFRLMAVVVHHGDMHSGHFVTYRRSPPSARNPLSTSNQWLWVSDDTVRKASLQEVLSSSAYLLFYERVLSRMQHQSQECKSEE
The assay is described as follows: Biochemical Fluorescence Intensity Kinetic Assay/Biochemical Fluorescence Intensity Assay. As to the method:
Buffer was optimised for optimal temperature, pH, reducing agent, salts, time of incubation, and detergent. […] Reactions were incubated at room temperature and read every 2 min for 120 min. Readings were performed on a Pherastar Plus (BMG Labtech). […] A typical 8-point dilution series would be 100, 30, 10, 3, 1, 0.3, 0.1, 0.03 μM final. […] Either 1 μl of 50% DMSO or diluted compound was added to the plate. USP30 was diluted in reaction buffer (40 mM Tris, pH 7.5, 0.005% Tween 20, 0.5 mg/ml BSA, 5 mM beta-mercaptoethanol) to the equivalent of 0.001 μl/well and 10 μl of diluted USP30 was added to the compound. Enzyme and compound were incubated for 30 min at room temp. […] Reactions were read immediately after addition of substrate and following a 2 h incubation at room temperature.

In the case of `CO[C@@H]1CN(C#N)C[C@H]1N(C)C(=O)c1ccc(-c2cnn(C)c2)cc1` [US10689345, Example 178], the IC50 entry is “in the range around 550 nM”.

Values taken from BindingDB's records for patent US10689345 (Mission Therapeutics Limited, 2020).
